Paper PMC10817512, “OSMAC-Based Discovery and Biosynthetic Gene Clusters Analysis of Secondary Metabolites from Marine-Derived Streptomyces globisporus SCSIO LCY30” (Marine Drugs, 2023)
Converted amounts (≈) assume the structure as drawn. Where two headings read alike, the source gives them in different places.

Assays:
[1] = system: triple-negative breast cancer cell line MDA-MB-468; experiment: Cell growth inhibitory (cytotoxic) activity assay; format: cell-based, human; conditions: Homo sapiens; MDA-MB-468 (TNBC)
Description: (§1) The cell growth inhibitory activities of compounds 1–3 against fourteen different human cell lines (human liver cell line LX-2; hepatocellular cancer line HEPG2; human intestinal epithelial cell line NCM460; colorectal cancer cell lines HCT116 and SW480; normal human breast cell line MCF-10A; breast cancer cell line MCF7; triple-negative breast cancer cell lines MDA-MB-231, MDA-MB-468, and Bt-549; human umbilical vein endothelial cell line; lung cancer cell line A549; cervical cancer cell line Hela; and cholangiocarcinoma cell line RBE) were tested according to the previously published methods. SPSS software version 22.0 was used to test the IC50 values. Cisplatin and adriamycin were used as positive control agents, and all the experiments were carried out in triplicate.

[2] = system: triple-negative breast cancer cell line MDA-MB-231; experiment: Cell growth inhibitory (cytotoxic) activity assay; format: cell-based, human; conditions: Homo sapiens; MDA-MB-231 (TNBC)
Description: as §1

[3] = system: cervical cancer cell line Hela; experiment: Cell growth inhibitory (cytotoxic) activity assay; format: cell-based, human; conditions: Homo sapiens
Description: as §1

[4] = system: cholangiocarcinoma cell line RBE; experiment: Cell growth inhibitory (cytotoxic) activity assay; format: cell-based, human; conditions: Homo sapiens
Description: as §1

[5] = system: lung cancer cell line A549; experiment: Cell growth inhibitory (cytotoxic) activity assay; format: cell-based, human; conditions: Homo sapiens
Description: as §1

[6] = system: triple-negative breast cancer cell line Bt-549; experiment: Cell growth inhibitory (cytotoxic) activity assay; format: cell-based, human; conditions: Homo sapiens; Bt-549 (TNBC)
Description: as §1

[7] = system: hepatocellular cancer line HEPG2; experiment: Cell growth inhibitory (cytotoxic) activity assay; format: cell-based, human; conditions: Homo sapiens
Description: as §1

[8] = system: colorectal cancer cell line SW480; experiment: Cell growth inhibitory (cytotoxic) activity assay; format: cell-based, human; conditions: for IC50: Homo sapiens, SW480 (colorectal cancer)
Description: as §1

[9] = system: colorectal cancer cell line HCT116; experiment: Cell growth inhibitory (cytotoxic) activity assay; format: cell-based, human; conditions: Homo sapiens, HCT-116
Description: as §1

[10] = system: Staphylococcus simulans AKA1; experiment: Antibacterial MIC, CLSI microdilution; format: cell-based; conditions: Staphylococcus simulans AKA1; 37 °C, 16–18 h; read-out: MIC
[11] = system: fourteen human cell lines; experiment: Cytotoxicity, span over the whole cell panel; format: cell-based; conditions: span of the IC50 values over all fourteen cell lines, read-out: IC50 values, range against fourteen human cell lines
Description: as §1

MRSA = experiment: Antibacterial MIC, CLSI microdilution; format: cell-based, Staphylococcus aureus; conditions: Staphylococcus aureus, 37 °C, 16–18 h, read-out: MIC
Experimental: (§2) An antibacterial activity test of compounds 1–3 was conducted according to a standard protocol provided by the Clinical and Laboratory Standards Institute (CLSI). Sixteen bacterial strains were used, including Staphylococcus aureus ATCC 29213, Staphylococcus aureus 16339, Staphylococcus aureus 1862, Staphylococcus aureus 3090, Staphylococcus aureus 991, Staphylococcus aureus 669, Staphylococcus aureus 745324, Staphylococcus aureus 16162, Staphylococcus aureus (cfr) GDE4P037P, Enterococcus faecalis ATCC 29212, Enterococcus faecalis 36950, Micrococcus luteus ML01, MRSA, Bacillus subtilis BS01, Enterococcus gallinarum 5F52C, and Enterococcus faecium 36711. Compounds 1–3 were dissolved in DMSO at a concentration of 3.2 mg/mL, and vancomycin and ampicilin were used as antibacterial control agents. […] All the assays were carried out in triplicate.

[12] = system: TNBC cell lines MDA-MB-231, MDA-MB-468, and Bt-549; experiment: Cytotoxicity, span over TNBC cell lines; format: cell-based; conditions: Homo sapiens; span over MDA-MB-231, MDA-MB-468 and Bt-549; read-out: IC50 values, range against TNBC cell lines
Description: as §1

Micrococcus luteus ML01 = experiment: Antibacterial MIC, CLSI microdilution; format: cell-based; conditions: 37 °C, 16–18 h
Experimental: as §2

[13] = system: Staphylococcus aureus 16162; experiment: Antibacterial MIC, CLSI microdilution; format: cell-based; conditions: Staphylococcus aureus 16162; 37 °C, 16–18 h; read-out: MIC
Experimental: as §2

[14] = system: Staphylococcus aureus ATCC 29213; experiment: Antibacterial MIC, CLSI microdilution; format: cell-based; conditions: ATCC29213; Staphylococcus aureus ATCC 29213; 37 °C, 16–18 h; read-out: MIC
Experimental: as §2

[15] = system: Staphylococcus aureus 3090; experiment: Antibacterial MIC, CLSI microdilution; format: cell-based; conditions: Staphylococcus aureus 3090; 37 °C, 16–18 h; read-out: MIC
Experimental: as §2

[16] = system: Enterococcus gallinarum 5F52C; experiment: Antibacterial MIC, CLSI microdilution; format: cell-based; conditions: Enterococcus gallinarum 5F52C; 37 °C, 16–18 h; read-out: MIC
Experimental: as §2

[17] = system: Staphylococcus aureus 1862; experiment: Antibacterial MIC, CLSI microdilution; format: cell-based; conditions: Staphylococcus aureus 1862; 37 °C, 16–18 h; read-out: MIC
Experimental: as §2

[18] = system: Enterococcus faecalis 36950; experiment: Antibacterial MIC, CLSI microdilution; format: cell-based; conditions: Enterococcus faecalis 36950; 37 °C, 16–18 h; read-out: MIC
Experimental: as §2

[19] = system: Staphylococcus aureus 669; experiment: Antibacterial MIC, CLSI microdilution; format: cell-based; conditions: Staphylococcus aureus 669; 37 °C, 16–18 h; read-out: MIC
Experimental: as §2

[20] = system: Enterococcus faecalis ATCC 29212; experiment: Antibacterial MIC, CLSI microdilution; format: cell-based; conditions: ATCC29212; Enterococcus faecalis ATCC 29212; 37 °C, 16–18 h; read-out: MIC
Experimental: as §2

[21] = system: Staphylococcus aureus 16339; experiment: Antibacterial MIC, CLSI microdilution; format: cell-based; conditions: Staphylococcus aureus 16339; 37 °C, 16–18 h; read-out: MIC
Experimental: as §2

[22] = system: Staphylococcus aureus 745324; experiment: Antibacterial MIC, CLSI microdilution; format: cell-based; conditions: Staphylococcus aureus 745324; 37 °C, 16–18 h; read-out: MIC
Experimental: as §2

[23] = system: Enterococcus faecium 36711; experiment: Antibacterial MIC, CLSI microdilution; format: cell-based; conditions: Enterococcus faecium 36711; 37 °C, 16–18 h; read-out: MIC
Experimental: as §2

[24] = system: Staphylococcus aureus (cfr) GDE4P037P; experiment: Antibacterial MIC, CLSI microdilution; format: cell-based; conditions: Staphylococcus aureus (cfr) GDE4P037P; 37 °C, 16–18 h; read-out: MIC
Experimental: as §2

[25] = system: Staphylococcus aureus 991; experiment: Antibacterial MIC, CLSI microdilution; format: cell-based; conditions: Staphylococcus aureus 991; 37 °C, 16–18 h; read-out: MIC
Experimental: as §2

Bacillus subtilis BS01 = experiment: Antibacterial MIC, CLSI microdilution; format: cell-based; conditions: Bacillus subtilis BS01; 37 °C, 16–18 h; read-out: MIC
Experimental: as §2

[26] = system: breast cancer cell line MCF7; experiment: Cell growth inhibitory (cytotoxic) activity assay; format: cell-based, human; conditions: Homo sapiens
Description: SPSS software version 22.0 was used to test the IC50 values.

[27] = system: human intestinal epithelial cell line NCM460; experiment: Cell growth inhibitory (cytotoxic) activity assay; format: cell-based; conditions: Homo sapiens; NCM460 (normal intestinal epithelial cell line)
Description: as §1

[28] = system: human umbilical vein endothelial cell line HUVEC; experiment: Cell growth inhibitory (cytotoxic) activity assay; format: cell-based
Description: as §1

[29] = system: human liver cell line LX-2; experiment: Cell growth inhibitory (cytotoxic) activity assay; format: cell-based; conditions: LX-2 (human liver cell line)
Description: as §1

[30] = system: normal human breast cell line MCF-10A; experiment: Cell growth inhibitory (cytotoxic) activity assay; format: cell-based; conditions: MCF-10A (normal human breast cell line)
Description: as §1

Bacillus subtilis = system: Bacillus subtilis; parameters: method as in PMID 18396903; conditions: ref [35]; cited from earlier work
Staphylococcus lentus = system: Staphylococcus lentus; parameters: method as in PMID 18396903; conditions: ref [35]; cited from earlier work
[31] = system: methicillin-resistant Staphylococcus aureus; parameters: method as in PMID 27097765; conditions: ref [24]; cited from earlier work
[32] = Micrococcus luteus, ML01, Micrococcus luteus ML01, read-out: MIC

Compound: Cc1cc(O)c2c3c(c(O)c(C4CC(N)C(O)C(C)O4)c2c1)C(=O)c1c(O)cccc1C3=O (stereo not drawn) [Mayamycin B (2), mayamycin B]
- IC50 [1]: 6.08 µM
- IC50 [2]: 3.01 µM
- IC50 [3]: 2.8 µM
- IC50 [4]: 4.06 µM
- IC50 [5]: 5.08 µM
- IC50 [6]: 3.87 µM
- IC50 [7]: 6 µM
- IC50 [8]: 2870 nM
- IC50 [9]: 2.05 µM
- MIC [10]: 64 µg/mL (≈ 142 µM)
- IC50 [11]: 2.05 to 7.16 µM
- MIC (MRSA): 8 µg/mL (≈ 17.8 µM)
- IC50 [12]: 3.01 to 6.08 µM
- MIC (Micrococcus luteus ML01; Micrococcus luteus ML01): 1 µg/mL (≈ 2.22 µM)
- MIC (Micrococcus luteus ML01; [32]): 1 to 2 µg/mL (≈ 2.22 to 4.45 µM)
- MIC [13]: 16 µg/mL (≈ 35.6 µM)
- MIC [14]: 16 µg/mL (≈ 35.6 µM)
- MIC [15]: 8 µg/mL (≈ 17.8 µM)
- MIC [16]: 32 µg/mL (≈ 71.2 µM)
- MIC [17]: 16 µg/mL (≈ 35.6 µM)
- MIC [18]: 8 µg/mL (≈ 17.8 µM)
- MIC [19]: 16 µg/mL (≈ 35.6 µM)
- MIC [20]: 16 µg/mL (≈ 35.6 µM)
- MIC [21]: 16 µg/mL (≈ 35.6 µM)
- MIC [22]: 8 µg/mL (≈ 17.8 µM)
- MIC [23]: 32 µg/mL (≈ 71.2 µM)
- MIC [24]: 8 µg/mL (≈ 17.8 µM)
- MIC [25]: 16 µg/mL (≈ 35.6 µM)
- MIC (Bacillus subtilis BS01): 8 µg/mL (≈ 17.8 µM)
- IC50 [26]: 4.15 µM
- IC50 [27]: 7.16 µM
- IC50 [28]: 4.41 µM
- IC50 [29]: 5.33 µM
- IC50 [30]: 5.21 µM

Compound: C[C@]1(O)CC(=O)c2c(cc(O)c3c2C(=O)c2cccc(O)c2C3=O)C1 [Rabelomycin (3), rabelomycin]
- IC50 [1]: 2.18 µM
- IC50 [2]: 8.67 µM
- IC50 [3]: 16.1 µM
- IC50 [4]: 4.23 µM
- IC50 [5]: 5.97 µM
- IC50 [6]: 7.85 µM
- IC50 [7]: 8.64 µM
- IC50 [8]: 1570 nM
- selective index (SI) ([8]; SW480 versus normal intestinal epithelial cell line NCM460): 4.49
- IC50 [9]: 4.72 µM
- MIC [10]: 16 µg/mL (≈ 47.3 µM)
- IC50 [11]: 1.57 to 16.1 µM
- MIC (MRSA): 8 µg/mL (≈ 23.6 µM)
- IC50 [12]: 2.18 to 8.67 µM
- MIC (Micrococcus luteus ML01; Micrococcus luteus ML01): 2 µg/mL (≈ 5.91 µM)
- MIC (Micrococcus luteus ML01; [32]): 1 to 2 µg/mL (≈ 2.96 to 5.91 µM)
- MIC [13]: 8 µg/mL (≈ 23.6 µM)
- MIC [14]: 8 µg/mL (≈ 23.6 µM)
- MIC [15]: 8 µg/mL (≈ 23.6 µM)
- MIC [16]: 32 µg/mL (≈ 94.6 µM)
- MIC [17]: 8 µg/mL (≈ 23.6 µM)
- MIC [18]: 8 µg/mL (≈ 23.6 µM)
- MIC [19]: 16 µg/mL (≈ 47.3 µM)
- MIC [20]: 8 µg/mL (≈ 23.6 µM)
- MIC [21]: 8 µg/mL (≈ 23.6 µM)
- MIC [22]: 8 µg/mL (≈ 23.6 µM)
- MIC [23]: 32 µg/mL (≈ 94.6 µM)
- MIC [24]: 4 µg/mL (≈ 11.8 µM)
- MIC [25]: 16 µg/mL (≈ 47.3 µM)
- MIC (Bacillus subtilis BS01): 4 µg/mL (≈ 11.8 µM)
- IC50 [26]: 4.48 µM
- IC50 [27]: 7.05 µM
- IC50 [28]: 10.9 µM
- IC50 [29]: 13.4 µM
- IC50 [30]: 11.3 µM

Compound: streptophenazine C
- MIC (Bacillus subtilis): 15.6 µg/mL
- MIC (Staphylococcus lentus): 46.9 µg/mL

Compound: (-)-Streptophenazine B
- MIC [31]: 4.2 µg/mL
